We go through 6 compounds from US12414995B2, “Bifunctional compounds comprising Apcin-A and their use in the treatment of cancer” (Northwestern University, priority 2019, dated 2025).

In series [1] the target is T1, Cdc20 (Homo sapiens, UniProt Q12834). Put plainly: Cdc20 ubiquitylation (immunoprecipitation, anti-ubiquitin immunoblot) in MDA-MB-231 cells. The note with it: 2 μM, with MG-132.
Description: Cdc20 were immunoprecipitated by antibody against Cdc20 followed by immunoblotting using anti-ubiquitin antibody.
Beads were then boiled for 5 min and analyzed by SDS/PAGE. Western blotting was performed according to standard protocols.
To confirm the CP5V-induced degradation of Cdc20 is mediated through the ubiquitin-proteasome pathway, the Cdc20 ubiquitylation in the absence and presence of CP5V as well as Apcin-A was measured.
In series [2] the target is T1, Cdc20. The experiment in a line: Cdc20 degradation by Western blotting in MCF-7 cells. The note with it: various dosages.
Description: (§5) MCF-7, MDA-MB-231 cells were cultured in DMEM medium supplemented with 10% fetal bovine serum (FBS) and 1% penicillin-streptomycin. Flag-Cdc20 MDA-MB-231 cells were cultured in complete DMEM media introduced before with 1 μg/ml Tamoxifen. The Cdc20, cyclin-B and actin antibodies were purchased from Sigma. The actin antibodies were diluted 1:5000. The Cdc20, Cyclin-B and ubiquitin antibodies were diluted 1:1000. The agarose beads were purchased from Cell Signaling Technology.
(§6) The lysates were analyzed by SDS/PAGE. Western blotting was performed by transferring samples onto a nitrocellulose membrane, incubating in 5% milk in TBST (Tris-buffered Saline with Tween 20) at room temperature for 1 h and probing with indicated antibody overnight at 4° C. Membranes were visualized using the ECL prime western blotting detection reagent (GE Healthcare, RPN2232).
(§7) The time course for CP5V-induced Cdc20 degradation was also measured in both cell lines.
Series [3] relates to MDA-MB-435 cells. Put plainly: Cell cycle analysis by flow cytometry in MDA-MB-435 cells. The series is classed as cell-based. The note with it: for mitotic arrest: synchronized. Here is the method:
(§1) Flow cytometry analysis. MDA-MB-231 and MDA-MB-435 cells were plated in a 6-cm dish and double-synchronized for 18 h and then 15 h with a 9-hour release with fresh medium between them. The cells were released and treated with DMSO, Apcin and CP5V at indicated concentrations for 24 h. After treatment, the cells were collected and stained with propidium iodide (PI) staining buffer and analyzed by flow cytometry.
(§2) Given that Cdc20-APC/C regulates mitotic progression through proteolysis of securin and cyclin B1, CP5V-mediated degradation of Cdc20 was examined for resultant changes of the protein level of securin and cyclin B1. […]. […]
Background: In flow cytometry, cells or beads pass a laser one at a time.

Series [4] deals with MDA-MB-231 cells. The experiment in a line: Cell cycle analysis by flow cytometry in MDA-MB-231 cells. The series is classed as cell-based. The note with it: for mitotic arrest: double-thymidine synchronized. On the procedure:
. In this example, cell cycle analysis of MDA-MB-231 cells was performed after CP5V treatment. The MDA-MB-231 cells were initially synchronized by double-thymidine followed by treatment with CP5V for 16 hours. Cell cycle profile was then measured by flow cytometry.
as §1, §2

A further series relates to U2OS cells. Put plainly: Cell survival CCK8 assay in U2OS cells. As to conditions: 72 hours.
The next series deals with MCF7 cells. Put plainly: Clonogenic assay in MCF7 cells. The note with it: 1 μM for 24 hours, then culture 2 weeks.
The next series relates to 22Rv1 cells. Put plainly: Cell survival CCK8 assay in 22Rv1 cells. As to conditions: 72 hours. A general note: Tetrazolium assays rely on reduction of a dye to a coloured formazan, in cell work by metabolically active cells.
Another series concerns Cdc20 mRNA. Put plainly: Cdc20 RNA level by qRT-PCR in MDA-MB-231 cells. The note with it: indicated dosages, 10 hours. The series is classed as cell-based. On the procedure:
MDA-MB-231 cells treated with CP5V at indicated dosages for 10 hours were harvested for RNA extraction, reverse-transcription, and further qRT-PCR.
To further confirm the conclusion that the CP5V-medicated degradation is depending on the ubiquitin-proteasome system, RT-PCR was conducted to measure the alteration of Cdc20 RNA levels in response to CP5V treatment.

Series [5] relates to MDA-MB-435 cells. The experiment in a line: Cell proliferation CCK8 assay in MDA-MB-435 cells. The series is classed as cell-based. As to conditions: Homo sapiens, 72 h, read-out: IC50 of cell growth inhibition. From the text:
(§3) Cell proliferation assays.

Series [6] deals with MDA-MB-435 eb cells.
Series [7] deals with MDA-MB-435 eb cells. The experiment in a line: cells. As to conditions: Homo sapiens, MDA-MB-435, read-out: growth inhibition.
The test system of series [8] is MDA-MB-231 cells. Put plainly: Cell proliferation CCK8 assay in MDA-MB-231 cells. The series is classed as cell-based. The note with it: Homo sapiens, 72 h, read-out: IC50 of cell growth inhibition.
Description: as §3

For a further series, the system named is Cdc27. The experiment in a line: Cdc27 protein level by Western blot in MDA-MB-231 cells (specificity). The series is classed as cell-based. As to conditions: indicated dosages, 10 hours. On the procedure: (§4) MDA-MB-231 cells treated with CP5V at indicated dosages for 10 hours were harvested for Western Blot.
To test the specificity for CP5V in targeting Cdc20, the dosage experiment based on MDA-MB-231 cells was repeated and the alteration of protein levels for Cdc20 and Cdc27, another core subunit of anaphase-promoting complex, was measured.
In general terms: In western blotting, separated proteins are transferred to a membrane and probed.

A further series relates to cyclin B1. The experiment in a line: Cyclin B1 level by Western blotting in MDA-MB-231 cells. The series is classed as cell-based. As to conditions: indicated dose, 10 hours. On the procedure: […]. Cdc20 and cyclin-B levels were then determined by Western blotting.
as §2

A further series relates to HIF1α. Put plainly: HIF1α accumulation by Western blot in MDA-MB-231 cells. The series is classed as cell-based. As to conditions: 10 hours; for HIF1α level: indicated dosages. On the procedure:
as §4
MDA-MB-231 cells treated with VHL Ligand 1 at indicated dosages for 10 hours and collected for WB.
Relatively high potential dosage of VHL ligand 1 (VHL1), the VHL-binding moiety offered by CP5V, causes concern if it affects HIF1α, the substrate of VHL.

The test system of another series is LNCaP cells. Put plainly: Cell survival CCK8 assay in LNCaP cells. The note with it: 72 hours.
In a further series the test system is 4T1 xenograft tumor. The experiment in a line: Mouse 4T1 xenograft model. The note with it: 100 mg/kg intraperitoneally twice per week.
In series [9] the test system is Tamoxifen-resistant breast cancer cells. Put plainly: Endocrine response of Tamoxifen-resistant breast cancer cells. The series is classed as cell-based.
Series [10] deals with T1, Cdc20. Put plainly: Cdc20 degradation by Western blotting in MDA-MB-231 cells. The note with it: MLN4924 5 μM with CP5V, 10 hours.
Description: as §5, §6, §7

T1 sequence (Q12834 whole entry): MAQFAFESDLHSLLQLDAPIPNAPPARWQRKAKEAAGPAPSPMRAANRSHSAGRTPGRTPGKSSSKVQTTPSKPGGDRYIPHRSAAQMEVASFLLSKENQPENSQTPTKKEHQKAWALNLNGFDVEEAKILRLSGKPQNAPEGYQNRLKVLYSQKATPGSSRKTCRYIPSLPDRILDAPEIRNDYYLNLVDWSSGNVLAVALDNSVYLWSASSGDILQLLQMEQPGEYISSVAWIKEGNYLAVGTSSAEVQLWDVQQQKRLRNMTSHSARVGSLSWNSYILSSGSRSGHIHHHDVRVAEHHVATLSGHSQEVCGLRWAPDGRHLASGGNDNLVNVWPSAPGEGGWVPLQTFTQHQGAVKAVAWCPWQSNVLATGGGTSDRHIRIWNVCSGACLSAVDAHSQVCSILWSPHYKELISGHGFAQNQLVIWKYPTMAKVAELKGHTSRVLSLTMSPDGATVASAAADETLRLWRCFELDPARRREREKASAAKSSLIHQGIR
Description for 22Rv1 cells: (§8) The test was performed in triplicate (n=3). Data are mean±SEM.
Description for 4T1 xenograft tumor: In this model, 5×10^5 cells 4T1 cells in PBS were injected into the Balb/C mice mammary fat pad. When tumors were palpable, tumor growth was measured for 3 weeks and calculated as 0.52xLXWxW (L=Length, W=Width). […] The mice were sacrificed at the end of treatment, and the xenograft tumor was collected, formalin fixed, paraffin embedded, sectioned. Immunohistochemistry (IHC) was conducted with xenograft tumor and liver tissues to detect Cdc20, Ki67, Activate and Caspase-3.
Description for LNCaP cells: as §8
Description for MCF7 cells: Data are presented as the mean±standard error of the mean (S.E.) of three independent samples (**p<0.01).
Description for U2OS cells: as §8

Turning to `NCCCOC(=O)NC(Nc1ncccn1)C(Cl)(Cl)Cl` (centres unmarked) [Apcin-A, 3-aminopropyl (2,2,2-trichloro-1-(pyrimidin-2-ylamino)ethyl)carbamate], the Cdc20 ubiquitylation result at Cdc20 [1] was “no obvious effect”. Further, the “Cdc20 protein level (degradation)” value at Cdc20 [2] was “no degradation of Cdc20”.

`Cc1ncc([N+](=O)[O-])n1CCOC(=O)NC(Nc1ncccn1)C(Cl)(Cl)Cl` (centres unmarked) [Apcin]: the mitotic arrest result with MDA-MB-435 cells [3] and in the series with MDA-MB-231 cells [4] was “no effect” throughout.

Broadly, the IC50 is the concentration that gives 50% inhibition. In general, inhibition refers to the relative decrease from the control value, in per cent. For the compound `Cc1ncsc1-c1ccc(CNC(=O)[C@@H]2C[C@@H](O)CN2C(=O)[C@H](NC(=O)CCOCCOCCOCCOCCOCCC(=O)NCCCOC(=O)NC(Nc2ncccn2)C(Cl)(Cl)Cl)C(C)(C)C)cc1` (stereo partly drawn) [CP5V, (R)-25-((2S,4R)-4-hydroxy-2-((4-(4-methylthiazol-5-yl)benzyl)carbamoyl)pyrrolidine-1-carbonyl)-26,26-dimethyl-5,23-dioxo-8,11,14,17,20-pentaoxa-4,24-diazaheptacosyl (2,2,2-trichloro-1-(pyrimidin-2-ylamino)ethyl)carbamate], the “inhibition of cell growth” value in the series on U2OS cells, in the series with 22Rv1 cells and in the series with LNCaP cells was “significant inhibition of cell growth” each time. Further, the “colony formation (killing of breast cancer cells)” value in the series on MCF7 cells is given as “potent efficacy in killing breast cancer cells”. The “Cdc20 mRNA level” value with Cdc20 mRNA was “no significant change”. In addition, the 50% inhibitory concentration (IC50) with MDA-MB-435 cells [5] worked out at 1990 nM; in the series on MDA-MB-231 cells [8], 2600 nM. In the series on MDA-MB-435 eb cells [6] (with 5 nM paclitaxel), the “Taxol-cytotoxic response of Taxol-resistant cells” value was “significantly restored their Taxol-cytotoxic response”. For the same compound, the inhibition at 5 µM in the series on MDA-MB-435 eb cells [7] was above 50%. Besides, the “cells arrested in the G2/M phase” value with MDA-MB-435 cells [3] (2 μM) is on record as above 50%; in the series with MDA-MB-231 cells [4] (2 μM), “over 40%”. For the same compound, the “fraction of cells in the G0/G1 phase” value is on record as “much lower compared to control cells” in the series with MDA-MB-435 cells [3] (2 μM, versus control cells) and “much lower compared to control cells” in the series with MDA-MB-231 cells [4] (2 μM, versus control cells). Also, the mitotic arrest entry in the series on MDA-MB-435 cells [3] and with MDA-MB-231 cells [4] was “induces mitotic arrest” each time. Also, the Cdc27 protein level entry in the series with Cdc27 is “no Cdc27 protein level change”. Moreover, in the series with cyclin B1, the “cyclin B1 level” value is reported as “largely accumulated”. Also, the HIF1α level result in the series on HIF1α is “no obvious alteration of HIF1α”. In addition, the “Cdc20 expression in the xenograft tumor (IHC)” value with 4T1 xenograft tumor is on record as “decreased Cdc20 expression”. Further, the “Ki67 index in the tumor (IHC)” value in the series on 4T1 xenograft tumor was “decreasing the Ki67 index”. Moreover, in the series on 4T1 xenograft tumor, the “effect on mice body weight” value is recorded as “no significant effect”. Further, the “expression of caspase-3 in the tumor (IHC)” value in the series on 4T1 xenograft tumor is “did not change dramatically”. Besides, the liver toxicity result with 4T1 xenograft tumor is recorded as “no significant effect”. Besides, the “reduction of the size of the xenograft tumor compared to placebo” value in the series with 4T1 xenograft tumor (Balb/C mice) was “approximately 70%”. Moreover, the “reduction of the weight of the xenograft tumor compared to placebo” value in the series on 4T1 xenograft tumor (Balb/C mice) was “approximately 70%”. In series [9], the “re-sensitization to Tamoxifen” value is “re-sensitizes Tamoxifen-resistant breast cancer cells to Tamoxifen treatment”.

As for `NS(=O)(=O)OC[C@@H]1C[C@@H](n2ccc3c(N[C@H]4CCc5ccccc54)ncnc32)C[C@@H]1O` [MLN4924], on Cdc20 [10], the “effect on CP5V-mediated Cdc20 degradation” value is listed as “inhibited the degradation of Cdc20 caused by CP5V”.

For the compound `Cc1ncsc1-c1ccc(CNC(=O)[C@@H]2C[C@@H](O)CN2C(=O)[C@@H](N)C(C)(C)C)cc1` [VHL ligand 1], in the series with HIF1α, the “concentration that induced HIF-α accumulation” value was at least 1 µM and the HIF1α level result is “significant HIF1α is accumulated”.

Turning to `CC(=O)O[C@H]1C(=O)[C@@]2(C)[C@H]([C@H](OC(=O)c3ccccc3)[C@]3(O)C[C@H](OC(=O)[C@H](O)[C@@H](NC(=O)c4ccccc4)c4ccccc4)C(C)=C1C3(C)C)[C@]1(OC(C)=O)CO[C@@H]1C[C@@H]2O` [paclitaxel, reference compound], in the series on MDA-MB-435 eb cells [6] (5 nM paclitaxel alone), the cells survived entry is listed as “about 92%”. For the same compound, the inhibition at 0.005 µM in the series with MDA-MB-435 eb cells [7] is below 10%.
